Active and inactive are the calls of the source.
What was measured:
[1] = molecular target: Sphingosine 1-phosphate receptor 2 (Homo sapiens, UniProt O95136); experiment: Dose Response Cell Based Assay for Agonists of the S1P2 Receptor. [Related pubchem assays: 729, 736, 843 ]; type: functional
Phospholipase D2 = Phospholipase D2 (Homo sapiens, UniProt O14939); experiment: PLD2 Cellular Concentration Response Study.; type: functional
Phospholipase D1 = Phospholipase D1 (Homo sapiens, UniProt Q13393); experiment: PLD1 Cellular Concentration Response Study.; type: functional
Chain of Phospholipase D1 (Q13393 whole entry): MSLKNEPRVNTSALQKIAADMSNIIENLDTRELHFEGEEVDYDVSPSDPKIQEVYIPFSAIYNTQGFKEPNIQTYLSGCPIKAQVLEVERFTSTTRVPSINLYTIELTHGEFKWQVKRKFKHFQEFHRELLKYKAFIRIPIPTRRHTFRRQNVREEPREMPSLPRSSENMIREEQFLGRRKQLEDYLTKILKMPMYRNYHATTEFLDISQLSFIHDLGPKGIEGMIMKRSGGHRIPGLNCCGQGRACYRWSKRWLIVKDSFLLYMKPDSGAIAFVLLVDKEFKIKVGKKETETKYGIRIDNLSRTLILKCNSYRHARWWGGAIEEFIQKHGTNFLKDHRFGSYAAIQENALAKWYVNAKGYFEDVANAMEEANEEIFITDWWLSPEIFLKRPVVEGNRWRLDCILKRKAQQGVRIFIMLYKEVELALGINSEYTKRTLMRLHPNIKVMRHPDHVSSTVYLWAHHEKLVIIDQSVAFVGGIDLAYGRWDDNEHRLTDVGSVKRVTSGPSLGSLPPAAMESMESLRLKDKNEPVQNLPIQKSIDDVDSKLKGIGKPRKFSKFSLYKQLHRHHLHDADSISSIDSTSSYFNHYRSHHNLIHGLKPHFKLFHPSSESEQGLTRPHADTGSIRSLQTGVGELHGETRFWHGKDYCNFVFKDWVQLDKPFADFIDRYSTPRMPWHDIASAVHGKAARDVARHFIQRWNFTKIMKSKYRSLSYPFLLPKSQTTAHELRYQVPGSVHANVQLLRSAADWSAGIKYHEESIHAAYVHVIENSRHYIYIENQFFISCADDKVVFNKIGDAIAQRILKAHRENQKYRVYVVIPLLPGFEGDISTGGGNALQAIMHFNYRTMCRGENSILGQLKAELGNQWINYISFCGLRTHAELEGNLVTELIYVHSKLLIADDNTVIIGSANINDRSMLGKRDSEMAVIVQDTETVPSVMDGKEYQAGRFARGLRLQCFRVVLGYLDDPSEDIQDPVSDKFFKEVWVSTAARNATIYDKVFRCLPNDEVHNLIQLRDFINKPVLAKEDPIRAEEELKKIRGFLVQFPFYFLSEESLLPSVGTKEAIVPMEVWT

[2] = YAP1 pathway inhibition via CTGF transcript levels, dose response, cell-based, DLD1 colon cancer, RT-qPCR, cherry-pick (AID 1053122); type: functional; details: Cancer cell lines
[3] = CTGF mRNA reduction under YAP1 overexpression, dose response, mechanism study for YAP1 pathway inhibitor project, DLD1 cells, RT-qPCR, cherry-pick (AID 1053127); type: functional, cell-based; details: DLD-1
[4] = molecular target: T1, Alkaline phosphatase, tissue-nonspecific isozyme (Homo sapiens, UniProt P05186); experiment: TNAP enzyme inhibition by screening hits, dose response, selectivity assay for mouse IAP inhibitor project, biochemical, human TNAP, uHTS hits (AID 488906); type: functional
T1 sequence (P05186 whole entry): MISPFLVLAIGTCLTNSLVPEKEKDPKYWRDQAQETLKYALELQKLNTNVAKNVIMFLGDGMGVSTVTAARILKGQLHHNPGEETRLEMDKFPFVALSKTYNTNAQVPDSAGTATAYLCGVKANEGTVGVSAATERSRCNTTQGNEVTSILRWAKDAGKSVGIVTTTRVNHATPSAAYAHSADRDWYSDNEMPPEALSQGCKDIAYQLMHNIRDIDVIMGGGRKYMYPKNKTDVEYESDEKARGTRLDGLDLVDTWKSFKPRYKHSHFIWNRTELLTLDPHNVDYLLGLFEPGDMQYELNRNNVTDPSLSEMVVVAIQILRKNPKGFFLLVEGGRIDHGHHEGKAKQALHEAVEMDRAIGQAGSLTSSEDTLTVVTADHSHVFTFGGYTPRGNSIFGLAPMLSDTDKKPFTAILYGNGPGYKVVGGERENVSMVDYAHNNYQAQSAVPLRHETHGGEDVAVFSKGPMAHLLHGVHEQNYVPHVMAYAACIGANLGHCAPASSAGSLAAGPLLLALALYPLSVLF

[5] = molecular target: Intestinal-type alkaline phosphatase (Mus musculus, UniProt P24822); experiment: PubChem AID 488785; type: functional
Chain of Intestinal-type alkaline phosphatase (Mus musculus, UniProt P24822) (P24822 whole entry): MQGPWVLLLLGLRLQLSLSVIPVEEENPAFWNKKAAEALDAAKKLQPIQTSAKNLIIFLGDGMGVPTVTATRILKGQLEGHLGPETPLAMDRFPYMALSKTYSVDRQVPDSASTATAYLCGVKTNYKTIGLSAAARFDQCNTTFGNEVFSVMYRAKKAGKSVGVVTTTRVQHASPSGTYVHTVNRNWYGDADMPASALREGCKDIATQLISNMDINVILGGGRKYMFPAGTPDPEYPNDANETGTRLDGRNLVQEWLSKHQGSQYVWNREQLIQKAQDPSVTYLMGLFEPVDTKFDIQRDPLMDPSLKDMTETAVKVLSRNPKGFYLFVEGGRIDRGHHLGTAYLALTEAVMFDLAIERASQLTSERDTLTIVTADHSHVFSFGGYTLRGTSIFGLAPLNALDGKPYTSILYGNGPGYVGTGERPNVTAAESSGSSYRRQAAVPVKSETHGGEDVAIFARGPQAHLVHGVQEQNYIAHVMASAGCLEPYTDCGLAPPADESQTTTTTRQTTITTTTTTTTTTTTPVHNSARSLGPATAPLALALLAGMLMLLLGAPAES

[6] = molecular target: Intestinal-type alkaline phosphatase (Homo sapiens, UniProt P09923); experiment: inhibition of human intestinal alkaline phosphatase – biochemical, dose response (AID 488876); type: functional
Chain of Intestinal-type alkaline phosphatase (Homo sapiens, UniProt P09923) (P09923 whole entry): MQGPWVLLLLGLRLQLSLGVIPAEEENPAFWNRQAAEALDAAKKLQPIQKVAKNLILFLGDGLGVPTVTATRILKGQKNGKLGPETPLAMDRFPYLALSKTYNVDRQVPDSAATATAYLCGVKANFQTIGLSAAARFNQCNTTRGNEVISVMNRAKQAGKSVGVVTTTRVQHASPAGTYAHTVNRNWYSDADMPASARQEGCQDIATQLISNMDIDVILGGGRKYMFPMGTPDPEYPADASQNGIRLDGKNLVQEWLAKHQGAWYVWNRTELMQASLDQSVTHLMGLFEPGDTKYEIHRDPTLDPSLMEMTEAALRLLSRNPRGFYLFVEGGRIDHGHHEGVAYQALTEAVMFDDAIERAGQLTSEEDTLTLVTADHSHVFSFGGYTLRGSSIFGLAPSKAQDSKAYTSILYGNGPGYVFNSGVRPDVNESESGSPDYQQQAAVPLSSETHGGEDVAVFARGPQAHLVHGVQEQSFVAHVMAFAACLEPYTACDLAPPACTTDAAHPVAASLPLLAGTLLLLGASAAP

[7] = molecular target: RNA-editing ligase 1, mitochondrial (Trypanosoma brucei brucei, UniProt P86926); experiment: TbREL1 ligase inhibitors, dose response, biochemical, fluorescence, Trypanosoma brucei (AID 1117295); type: functional
Chain of RNA-editing ligase 1, mitochondrial (P86926 whole entry): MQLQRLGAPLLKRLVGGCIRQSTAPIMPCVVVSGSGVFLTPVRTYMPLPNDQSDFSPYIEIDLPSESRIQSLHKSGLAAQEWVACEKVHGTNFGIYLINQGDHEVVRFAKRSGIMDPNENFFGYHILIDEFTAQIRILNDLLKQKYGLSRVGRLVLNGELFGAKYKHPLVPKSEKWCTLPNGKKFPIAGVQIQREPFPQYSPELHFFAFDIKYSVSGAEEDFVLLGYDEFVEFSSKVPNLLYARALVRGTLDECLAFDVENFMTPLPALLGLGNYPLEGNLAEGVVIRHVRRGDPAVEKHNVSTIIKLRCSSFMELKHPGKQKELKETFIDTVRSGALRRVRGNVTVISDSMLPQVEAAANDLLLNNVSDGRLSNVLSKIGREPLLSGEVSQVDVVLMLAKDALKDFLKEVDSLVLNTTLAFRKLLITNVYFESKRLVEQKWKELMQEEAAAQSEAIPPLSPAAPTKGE

cells [8] = type: functional, cell-based
[9] = cytotoxicity dependent on PAX8, dose response, cell-based, plate reader, dry powder (AID 743049); type: functional
[10] = cytotoxicity toward NIH3T3 fibroblasts, dose response, counter-screen, cell-based, ATP luminescence, mouse fibroblasts (AID 2010); type: functional;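 further: cells exposed to compound for about 90 hours before reading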
INS1 = experiment: beta cell apoptosis inhibitors, cytokine rescue, dose response, luminescence, retest (AID 449756); type: functional, cell-based; details: Rattus norvegicus, INS1;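 further: cell death triggered by IL-1 beta plus TNF-alpha plus IFN-gamma mixture; protective hits raise ATP signal compared with cytokine alone wells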
[11] = Shn3 3'UTR reporter inhibitors, dose response, cell-based, Clone20 osteoblasts, firefly luciferase, cherry-picked (AID 624132); type: functional;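 further: firefly luciferase luminescence from reporter carrying the Shn3 3'UTR in osteoblasts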
[12] = inhibitors of intracellular T. cruzi replication, confirmation, NIH3T3 host cells, beta-gal luminescence (AID 2044); type: functional, cell-based;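 further: intracellular parasites grown in NIH/3T3 mouse fibroblasts as host cells; luminescent beta-galactosidase reporter signal from transgenic T. cruzi replicating inside host cells; inhibitors lower the luminescence signal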
[13] = NIH:OVCAR-3 ovarian cancer cell cytotoxicity, dose response, PAX8 inhibitor project, plate reader, dry powder samples (AID 743044); type: functional, cell-based
[14] = A2780 ovarian cancer cell cytotoxicity, dose response, cytotoxicity control, plate reader, dry powder samples (AID 743046); type: functional, cell-based
[15] = HepG2 cell cytotoxicity, dose response, cytotoxicity control for Shn3 inhibitor project, CellTiter-Glo, cherry-picked (AID 624134); type: functional, cell-based
[16] = IGROV1 ovarian cancer cell cytotoxicity, dose response, PAX8 inhibitor project, plate reader, dry powder samples (AID 743043); type: functional, cell-based; details: IGROV-1
[17] = HEK293T cytotoxicity, dose response, cytotoxicity control for miR-122 modulator project, cell-based, inhibitor set, cherry-pick, set 2 (AID 720697); type: functional
[18] = molecular target: Heat shock protein HSP 90-alpha (Homo sapiens, UniProt P07900); type: functional, organism-based
[19] = HEK293T cytotoxicity, dose response, cytotoxicity control for miR-122 modulator project, cell-based, activator set, cherry-pick (AID 720690); type: functional;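 further: HEK293T human cells scored for general mammalian cytotoxicity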
[20] = IOSE-T80 ovarian epithelial cell cytotoxicity, dose response, cytotoxicity control for PAX8 inhibitor project, plate reader, dry powder samples (AID 743045); type: functional, cell-based
Paired box protein Pax-8 = Paired box protein Pax-8 (Homo sapiens, UniProt Q06710); experiment: inhibitors of PAX8-driven TPO luciferase reporter, dose response, RMG-I cells, cherry-pick (AID 687027); type: functional, cell-based;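 further: luciferase reporter driven by Pax8 target thyroperoxidase promoter measured by SteadyGlo luminescence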
Chain of Paired box protein Pax-8 (Q06710 whole entry): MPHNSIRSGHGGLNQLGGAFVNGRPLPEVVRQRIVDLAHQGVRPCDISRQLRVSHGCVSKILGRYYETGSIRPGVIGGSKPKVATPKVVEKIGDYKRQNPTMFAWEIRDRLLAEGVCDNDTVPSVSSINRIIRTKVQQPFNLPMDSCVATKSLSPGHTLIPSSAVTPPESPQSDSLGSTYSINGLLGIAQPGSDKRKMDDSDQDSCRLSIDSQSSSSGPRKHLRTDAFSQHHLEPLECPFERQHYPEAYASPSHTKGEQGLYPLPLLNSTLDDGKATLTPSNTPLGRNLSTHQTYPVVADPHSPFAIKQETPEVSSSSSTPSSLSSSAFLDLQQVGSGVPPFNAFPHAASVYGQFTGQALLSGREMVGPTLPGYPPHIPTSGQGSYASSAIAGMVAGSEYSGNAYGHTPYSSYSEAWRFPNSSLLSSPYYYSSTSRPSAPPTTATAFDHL

[21] = PAX5 activity inhibitors, dose response, selectivity assay for PAX8 inhibitor project, cell-based, plate reader, dry powder samples (AID 743047); type: functional;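 further: HEK293 cells carrying a Pax5 driven CD19 promoter luciferase reporter; potency of inhibitors that lower reporter luminescence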
[22] = human group III sPLA2 inhibitors, dose response, biochemical, QFRET, IC50 (AID 743457);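 further: green fluorescence rise as the enzyme cleaves BODIPY PC-A2 in liposomes; potency for inhibition of the enzyme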
[23] = cytotoxicity in OVCAR4 cells, dose response, cytotoxicity control for PAX8 inhibitor project, cell-based, plate reader, dry powder, SA11 (AID 743150); type: functional; details: OVCAR-4
[24] = cytotoxicity in COV362 ovarian cancer cells, dose response, cytotoxicity control for PAX8 inhibitor project, cell-based, plate reader, dry powder, SA12 (AID 743144); type: functional
[25] = cytotoxicity in OV-90 ovarian cancer cells, dose response, PAX8 inhibitor project, cell-based, plate reader, dry powder, SA8 (AID 743149); type: functional
cells [26] = type: functional, cell-based; remark: listed apart in the source
[27] = cytotoxicity in COV434 cells, dose response, cytotoxicity control for PAX8 inhibitor project, cell-based, plate reader, dry powder, SA7 (AID 743145); type: functional
[28] = control 3'UTR Renilla luciferase suppression, dose response, counter-screen for Shn3 inhibitor project, cell-based, Clone20-Shn3RL, cherry-picked (AID 624133); type: functional
[29] = PAX2 cell-based inhibition, dose response, selectivity assay for PAX8 inhibitor project, plate reader, dry powder samples (AID 743048); type: functional;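 further: HEK293 cells carrying a WT1 promoter luciferase reporter driven by expressed Pax2; potency is for inhibition of Pax2 driven reporter signal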
[30] = P. falciparum Dd2 growth inhibitors, dose response, SYBR Green, dry powder samples, set 9 (AID 1159568); type: functional, cell-based
[31] = HepG2 cell cytotoxicity, dose response, cytotoxicity control, ATP luminescence, dry powder, set 2 (AID 743129); type: functional, cell-based
[32] = A549 cell cytotoxicity, dose response, cytotoxicity control, CellTiter-Glo luminescence, dry powder, set 5 (AID 743158); type: functional, cell-based
[33] = molecular target: Mitogen-activated protein kinase 10 (Homo sapiens, UniProt P53779); experiment: Dose response biochemical screening assay for inhibitors of c-Jun N-Terminal Kinase 3 (JNK3). [Related pubchem assays: 746 ]
Chain of Mitogen-activated protein kinase 10 (P53779 whole entry, canonical isoform): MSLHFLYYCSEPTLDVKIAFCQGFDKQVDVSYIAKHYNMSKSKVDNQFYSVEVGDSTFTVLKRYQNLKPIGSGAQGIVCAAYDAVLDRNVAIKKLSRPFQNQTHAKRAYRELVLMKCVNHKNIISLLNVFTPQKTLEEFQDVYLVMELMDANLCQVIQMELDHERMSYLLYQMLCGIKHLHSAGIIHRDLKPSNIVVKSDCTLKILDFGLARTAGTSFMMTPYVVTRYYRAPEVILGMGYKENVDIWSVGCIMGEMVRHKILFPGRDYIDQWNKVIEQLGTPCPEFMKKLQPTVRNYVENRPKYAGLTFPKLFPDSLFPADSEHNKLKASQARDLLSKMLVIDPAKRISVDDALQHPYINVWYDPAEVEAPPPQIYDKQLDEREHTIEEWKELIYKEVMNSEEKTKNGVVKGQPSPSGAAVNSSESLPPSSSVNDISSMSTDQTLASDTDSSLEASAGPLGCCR

[34] = molecular target: T2, Low molecular weight phosphotyrosine protein phosphatase (Homo sapiens, UniProt P24666); experiment: LMPTP phosphatase inhibitors, colorimetric pNPP readout, dose response, orthogonal assay, biochemical, absorbance, pNPP substrate, LMPTP-A isoform, set 2 (AID 743308); type: functional
T2 sequence (P24666 whole entry): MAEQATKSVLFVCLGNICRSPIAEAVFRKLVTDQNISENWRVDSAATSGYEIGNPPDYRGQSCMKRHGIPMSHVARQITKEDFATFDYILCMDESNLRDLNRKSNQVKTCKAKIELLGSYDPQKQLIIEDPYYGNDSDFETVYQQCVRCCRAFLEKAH

[35] = molecular target: T2, Low molecular weight phosphotyrosine protein phosphatase; experiment: LMPTP phosphatase inhibitors, dose response, biochemical, OMFP substrate, fluorescence intensity, set 2 (AID 743307); type: functional
[36] = half-maximal inhibitory concentration for glucagon-like peptide-1 release, STC-1 cell line, dose-response (AID 1117345); type: functional, cell-based
[37] = Dose-response inhibition of insulin secretion in a rat insulinoma line at 5 mM glucose (AID 1117331); type: functional, cell-based; details: INS-1E
[38] = Glucagon-like peptide 1 release potency, NCI-H716 cell line, dose-response, half-maximal inhibitory concentration (AID 1117344); type: functional, cell-based
[39] = HeLa 4N DNA content increase, dose response, cell-based, IC50 (AID 1117351); type: functional
[40] = HeLa 2N DNA content increase, dose response, cell-based, IC50 (AID 1117349); type: functional
[41] = P. falciparum 3D7-ScDHODH growth inhibitors, dose response, SYBR Green, dry powder samples (AID 1159570); type: functional, cell-based;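 further: parasite growth measured after 72 hours of compound exposure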
[42] = P. falciparum Dd2 growth inhibitors, dose response, SYBR Green, dry powder samples (AID 1159566); type: functional, cell-based;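 further: potency for growth inhibition with lower SYBR green DNA signal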
[43] = P. falciparum Dd2 growth inhibitors, dose response, SYBR Green, cherry-picked samples (AID 1159567); type: functional, cell-based
[44] = Plasmodium falciparum Dd2 Sybr green parasite growth Measured in Cell-Based and Microorganism Combination System Using Plate Reader - 2153-01_Inhibitor_Dose_DryPowder_Activity_Set3.; type: functional
[45] = HepG2 cell cytotoxicity, dose response, cytotoxicity control, plate reader, dry powder samples (AID 1159569); type: functional, cell-based;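 further: inhibitor potency with signal falling toward the positive control level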
[46] = P. falciparum ATP4 D1247Y mutant growth inhibitors, dose response, NITD609-resistant line, SYBR Green, dry powder (AID 1159571); type: functional, cell-based;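 further: parasites synchronized at ring stage by sorbitol before testing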

Chain of Sphingosine 1-phosphate receptor 2 (O95136 whole entry): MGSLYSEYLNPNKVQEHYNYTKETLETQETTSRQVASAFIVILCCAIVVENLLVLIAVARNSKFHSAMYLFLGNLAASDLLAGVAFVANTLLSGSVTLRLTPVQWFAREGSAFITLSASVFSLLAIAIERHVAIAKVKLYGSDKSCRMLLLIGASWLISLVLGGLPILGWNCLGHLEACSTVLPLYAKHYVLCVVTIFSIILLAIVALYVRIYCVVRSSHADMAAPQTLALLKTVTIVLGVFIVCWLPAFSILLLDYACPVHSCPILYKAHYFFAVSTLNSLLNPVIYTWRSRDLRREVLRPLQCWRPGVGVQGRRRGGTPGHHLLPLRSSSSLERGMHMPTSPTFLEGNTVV
Chain of Phospholipase D2 (O14939 whole entry): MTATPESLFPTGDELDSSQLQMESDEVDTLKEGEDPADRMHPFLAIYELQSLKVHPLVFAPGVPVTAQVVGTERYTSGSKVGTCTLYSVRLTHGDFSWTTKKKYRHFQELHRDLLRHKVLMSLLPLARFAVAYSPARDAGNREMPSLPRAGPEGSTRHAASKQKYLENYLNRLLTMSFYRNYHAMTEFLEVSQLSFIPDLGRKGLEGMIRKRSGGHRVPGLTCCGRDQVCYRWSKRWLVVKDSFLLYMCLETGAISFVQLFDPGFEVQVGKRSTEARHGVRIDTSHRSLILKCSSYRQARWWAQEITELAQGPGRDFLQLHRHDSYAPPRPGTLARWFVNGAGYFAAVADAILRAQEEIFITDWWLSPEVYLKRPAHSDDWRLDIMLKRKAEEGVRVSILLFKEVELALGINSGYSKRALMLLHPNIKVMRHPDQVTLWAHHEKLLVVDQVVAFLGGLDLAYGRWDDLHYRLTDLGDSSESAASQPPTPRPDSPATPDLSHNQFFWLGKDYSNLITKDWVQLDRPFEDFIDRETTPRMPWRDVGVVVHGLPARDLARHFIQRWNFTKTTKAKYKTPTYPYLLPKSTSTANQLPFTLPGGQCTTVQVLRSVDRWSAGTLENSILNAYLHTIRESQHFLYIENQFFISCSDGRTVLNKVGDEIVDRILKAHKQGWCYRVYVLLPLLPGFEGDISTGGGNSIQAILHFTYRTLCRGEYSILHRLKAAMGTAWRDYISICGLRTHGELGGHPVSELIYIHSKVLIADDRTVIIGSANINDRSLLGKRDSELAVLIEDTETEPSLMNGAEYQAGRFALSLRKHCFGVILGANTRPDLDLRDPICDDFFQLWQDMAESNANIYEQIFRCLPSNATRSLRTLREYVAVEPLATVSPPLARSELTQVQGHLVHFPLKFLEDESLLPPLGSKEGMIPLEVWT

C(=C\c1ccccc1)/CSc1nnc(-c2ccccc2)n1Cc1ccco1
EC50 [1]: > 50 µM (not active)

O=C(NCCN1CCC2(CC1)C(=O)NCN2Cc1ccccc1)c1ccc2ccccc2c1
IC50 (Phospholipase D2): 0.89 µM (active)
IC50 (Phospholipase D1): 8.26 µM (active)

O=C(Cc1ccncc1)N1CCCCN2[C@H](CO)[C@H](c3ccc(C#Cc4ccccc4F)cc3)[C@@H]2C1
AC50 [2]: 5.41 µM (active)
AC50 [3]: 7.5 µM (active)

N#Cc1c(SCC(=O)Nc2nccs2)sc2c(O)cc(O)nc12
IC50 [4]: > 100 µM (inactive)
IC50 [5]: 0.485 µM (active)
IC50 [6]: > 100 µM (inactive)
IC50 [7]: 35.5 µM (inactive)

CCCCC(=O)NC(c1ccccc1OC)c1ccc2cccnc2c1O (stereo not given)
EC50 (cells [8]): 6.29 µM (active)
AC50 [9]: 20.1 µM (active)
EC50 [10]: 1.27 µM (active)
AC50 (INS1): 0.718 µM (active)
AC50 [11]: 1.19 µM (active)
EC50 [12]: 0.435 µM (active)
AC50 [13]: 4.87 µM (active)
AC50 [14]: 8.16 µM (active)
AC50 [15]: 2.55 µM (active)
AC50 [16]: 7.55 µM (active)
AC50 [17]: 2.22 µM (active)
AC50 [18]: 4.38 µM (active)
AC50 [19]: 3.36 µM (active)
AC50 [20]: 5.77 µM (active)
AC50 (Paired box protein Pax-8): 2.44 µM (active)
AC50 [21]: 3.51 µM (active)
IC50 [22]: > 122 µM (inactive)
AC50 [23]: 16.3 µM (active)
AC50 [24]: 7.92 µM (active)
AC50 [25]: 10.7 µM (active)
EC50 (cells [26]): > 350 µM (not active)
AC50 [27]: 6.89 µM (active)
AC50 [28]: 3.18 µM (active)
AC50 [29]: 3.22 µM (active)

C[C@H]1CCCCO[C@H](CN(C)S(=O)(=O)c2ccccc2)[C@@H](C)CN([C@@H](C)CO)C(=O)c2cc(NC(=O)Nc3ccc4c(c3)OCO4)ccc2O1
AC50 [30]: 2.22 µM (active)

CCOC(=O)c1c(-c2ccc(C(C)(C)C)cc2)csc1NC(=O)CN1CCN(C)CC1
AC50 [31]: 16.4 µM (active)
AC50 [32]: 21.4 µM (active)

COC(=O)c1ccc(Cn2c(O)c(N=O)c3ccccc32)o1
IC50 [33]: > 31 µM (not active)

Fc1ccc2nc(-c3ccccc3)cc(NCCCN3CCCCC3)c2c1
IC50 [34]: 21 µM (inactive)
IC50 [35]: 22 µM (inactive)

CC(COc1ccccc1)NN (stereo not given) [PHENOXYPROPAZINE]
IC50 [36]: 27.2 µM (inactive)
IC50 [37]: > 33.3 µM (inactive)
IC50 [38]: > 40 µM (inactive)

CC[C@]1(O)C[C@H]2CN(CCc3c([nH]c4ccccc34)[C@@](C(=O)OC)(c3cc4c(cc3OC)N(C=O)[C@H]3[C@@](O)(C(=O)OC)[C@H](OC(C)=O)[C@]5(CC)C=CCN6CC[C@]43[C@@H]65)C2)C1 [VINCRISTINE]
IC50 [39]: 0.0059 µM (active)
IC50 [40]: 0.0062 µM (active)

COc1ccccc1-c1ccc([C@@H]2[C@@H](C#N)N[C@@H]2CO)cc1
AC50 [41]: 3.22 µM (active)
AC50 [42]: 0.907 µM (active)
AC50 [43]: 3.02 µM (active)
AC50 [44]: 6.32 µM (active)
AC50 [45]: > 100 µM (inactive)
AC50 [46]: 0.946 µM (active)
